Converted amounts (≈) assume the structure as drawn.
What was measured:
[1] = Oral bioavailability in Sprague-Dawley rat at 2.1 mg/kg; format: ADME, organism-based; conditions: in vivo
[2] = Oral bioavailability in Sprague-Dawley rat at 18.8 mg/kg; format: ADME, organism-based; conditions: in vivo
[3] = Oral bioavailability in Sprague-Dawley rat at 46.7 mg/kg; format: ADME, organism-based; conditions: in vivo
[4] = Plasma protein binding in Sprague-Dawley rat at 2.1 to 46.7 mg/kg, po; format: ADME, organism-based; design: dose 2.1-46.7 mg/kg, route oral; conditions: read-out: PPB (converted)
[5] = tested on: Plasmodium falciparum; assay: Antimalarial activity against Plasmodium falciparum 3D7 0087/N9 infected in human RBC engrafted NOD-SCID IL-2Rgamma-null mouse assessed as reduction in parasitemia administered orally 3 days post infection qd for 4 days measured 24 hrs after final dose by FACS analysis; format: functional; conditions: 3D7 0087/N9, po
[6] = tested on: Mus musculus; assay: AUC (0 to 24 hrs) in human RBC engrafted NOD-SCID IL-2Rgamma-null mouse at 7 mg/kg, po; format: ADME, organism-based, Plasma; design: time < 24 hr, dose 7 mg/kg, route oral; conditions: in vivo
[7] = Cmax in human RBC engrafted NOD-SCID IL-2Rgamma-null mouse at 7 mg/kg, po; format: ADME, organism-based; design: dose 7 mg/kg, route oral; conditions: in vivo
[8] = Cmax in human RBC engrafted NOD-SCID IL-2Rgamma-null mouse infected with Plasmodium falciparum 3D7 0087/N9 at 7 mg/kg, po; format: ADME, organism-based; design: dose 7 mg/kg, route oral; conditions: in vivo
[9] = tested on: Plasmodium falciparum; assay: Antimalarial activity against Plasmodium falciparum D10 by [3H]hypoxanthine incorporation assay; format: functional, organism-based
[10] = tested on: Plasma; assay: Plasma protein binding in human by chromatographic method; format: ADME, cell-free
[11] = tested on: Liver microsomes; assay: Intrinsic clearance in human liver microsomes; format: ADME, Microsome
[12] = tested on: Plasmodium falciparum; assay: Antimalarial activity against drug-sensitive Plasmodium falciparum D6 by [3H]hypoxanthine incorporation assay in presence of human serum; format: functional, organism-based
[13] = tested on: Plasmodium falciparum; assay: Antimalarial activity against chloroquine and pyrimethamine-resistant Plasmodium falciparum K1 by [3H]hypoxanthine incorporation assay in presence of human serum; format: functional, organism-based
[14] = tested on: Plasmodium falciparum; assay: Antimalarial activity against drug-sensitive Plasmodium falciparum HB3 by [3H]hypoxanthine incorporation assay in presence of human serum; format: functional, organism-based
[15] = tested on: Plasmodium falciparum; assay: Antimalarial activity against chloroquine-resistant Plasmodium falciparum Dd2 by [3H]hypoxanthine incorporation assay in presence of human serum; format: functional, organism-based
[16] = tested on: Plasmodium falciparum; assay: Antimalarial activity against atovoquone-resistant Plasmodium falciparum TM90C2B by [3H]hypoxanthine incorporation assay in presence of human serum; format: functional, organism-based
[17] = tested on: Plasmodium falciparum; assay: Antimalarial activity against […] Plasmodium falciparum TM90C2A by [3H]hypoxanthine incorporation assay in presence of human serum; format: functional, organism-based
[18] = tested on: HepG2; assay: Cytotoxicity against human HepG2 cells; format: cell-based
[19] = tested on: L1210; assay: Cytotoxicity against mouse L1210 cells; format: cell-based
[20] = Terminal elimination half life in Swiss outbred mouse at 0.4 mg/kg, po; format: ADME, organism-based; design: dose 0.4 mg/kg, route oral; conditions: in vivo, read-out: beta t1/2 (converted)
[21] = Terminal elimination half life in Swiss outbred mouse at 2 mg/kg, po; format: ADME, organism-based; design: dose 2 mg/kg, route oral; conditions: in vivo, read-out: beta t1/2 (converted)
[22] = Terminal elimination half life in Swiss outbred mouse at 10 mg/kg, po; format: ADME, organism-based; design: dose 10 mg/kg, route oral; conditions: in vivo, read-out: beta t1/2 (converted)
[23] = Terminal elimination half life in Swiss outbred mouse at 50 mg/kg, po; format: ADME, organism-based; design: dose 50 mg/kg, route oral; conditions: in vivo, read-out: beta t1/2 (converted)
[24] = Cmax in Swiss outbred mouse at 0.4 mg/kg, po; format: ADME, organism-based; design: dose 0.4 mg/kg, route oral; conditions: in vivo
[25] = Cmax in Swiss outbred mouse at 2 mg/kg, po; format: ADME, organism-based; design: dose 2 mg/kg, route oral; conditions: in vivo
[26] = Cmax in Swiss outbred mouse at 10 mg/kg, po; format: ADME, organism-based; design: dose 10 mg/kg, route oral; conditions: in vivo
[27] = Cmax in Swiss outbred mouse at 50 mg/kg, po; format: ADME, organism-based; design: dose 50 mg/kg, route oral; conditions: in vivo
[28] = AUC (0 to infinity) in Swiss outbred mouse plasma at 0.4 mg/kg, po; format: ADME, organism-based; design: time infinity, dose 0.4 mg/kg, route oral
[29] = AUC (0 to infinity) in Swiss outbred mouse plasma at 2 mg/kg, po; format: ADME, organism-based; design: time infinity, dose 2 mg/kg, route oral
[30] = AUC (0 to infinity) in Swiss outbred mouse plasma at 10 mg/kg, po; format: ADME, organism-based; design: time infinity, dose 10 mg/kg, route oral
[31] = AUC (0 to infinity) in Swiss outbred mouse plasma at 50 mg/kg, po; format: ADME, organism-based; design: time infinity, dose 50 mg/kg, route oral
[32] = tested on: Mus musculus; assay: Time plasma concentration remained above 1 uM in Swiss outbred mouse plasma at 0.4 mg/kg, po; format: ADME, organism-based; design: dose 0.4 mg/kg, route oral; conditions: in vivo
[33] = tested on: Mus musculus; assay: Time plasma concentration remained above 1 uM in Swiss outbred mouse plasma at 2 mg/kg, po; format: ADME, organism-based; design: dose 2 mg/kg, route oral; conditions: in vivo
[34] = tested on: Mus musculus; assay: Time plasma concentration remained above 1 uM in Swiss outbred mouse plasma at 10 mg/kg, po; format: ADME, organism-based; design: dose 10 mg/kg, route oral; conditions: in vivo
[35] = Clearance in Sprague-Dawley rat at 2.6 mg/kg, iv; format: ADME, organism-based; design: dose 2.6 mg/kg, route intravenous; conditions: in vivo
[36] = Terminal elimination half life in Sprague-Dawley rat at 0.9 mg/kg, iv; format: ADME, organism-based; design: dose 0.9 mg/kg, route intravenous; conditions: in vivo, read-out: beta t1/2 (converted)
[37] = Terminal elimination half life in Sprague-Dawley rat at 2.6 mg/kg, iv; format: ADME, organism-based; design: dose 2.6 mg/kg, route intravenous; conditions: in vivo, read-out: beta t1/2 (converted)
[38] = Volume of distribution in Sprague-Dawley rat at 0.9 mg/kg, iv; format: ADME, organism-based; design: dose 0.9 mg/kg, route intravenous; conditions: in vivo
[39] = Volume of distribution in Sprague-Dawley rat at 2.6 mg/kg, iv; format: ADME, organism-based; design: dose 2.6 mg/kg, route intravenous; conditions: in vivo
[40] = Cmax in Sprague-Dawley rat at 2.1 mg/kg, po; format: ADME, organism-based; design: dose 2.1 mg/kg, route oral; conditions: in vivo
[41] = Cmax in Sprague-Dawley rat at 18.8 mg/kg, po; format: ADME, organism-based; design: dose 18.8 mg/kg, route oral; conditions: in vivo
[42] = Cmax in Sprague-Dawley rat at 46.7 mg/kg, po; format: ADME, organism-based; design: dose 46.7 mg/kg, route oral; conditions: in vivo
[43] = Terminal elimination half life in Sprague-Dawley rat at 2.1 mg/kg, po; format: ADME, organism-based; design: dose 2.1 mg/kg, route oral; conditions: in vivo, read-out: beta t1/2 (converted)
[44] = Terminal elimination half life in Sprague-Dawley rat at 18.8 mg/kg, po; format: ADME, organism-based; design: dose 18.8 mg/kg, route oral; conditions: in vivo, read-out: beta t1/2 (converted)
[45] = Terminal elimination half life in Sprague-Dawley rat at 46.7 mg/kg, po; format: ADME, organism-based; design: dose 46.7 mg/kg, route oral; conditions: in vivo, read-out: beta t1/2 (converted)
[46] = AUC (0 to infinity) in Sprague-Dawley rat at 2.1 mg/kg, po; format: ADME, organism-based; design: time infinity, dose 2.1 mg/kg, route oral; conditions: plasma
[47] = AUC (0 to infinity) in Sprague-Dawley rat at 18.8 mg/kg, po; format: ADME, organism-based; design: time infinity, dose 18.8 mg/kg, route oral; conditions: plasma
[48] = AUC (0 to infinity) in Sprague-Dawley rat at 46.7 mg/kg, po; format: ADME, organism-based; design: time infinity, dose 46.7 mg/kg, route oral; conditions: plasma
[49] = tested on: Plasmodium falciparum; assay: Antimalarial activity against Plasmodium falciparum 3D7 by [3H]hypoxanthine incorporation assay in presence of human serum; format: functional, organism-based
[50] = tested on: Plasmodium falciparum; assay: Antimalarial activity against Plasmodium falciparum 3D7 by [3H]hypoxanthine incorporation assay in presence of albumax; format: functional, organism-based
[51] = tested on: Plasmodium falciparum; assay: Antimalarial activity against Plasmodium falciparum D10 transfected with yeast DHODH by [3H]hypoxanthine incorporation assay; format: functional, organism-based
[52] = Aqueous solubility of the compound at pH 6.5; format: physicochemical
[53] = in vivo; conditions: NOD-SCID IL-2Rgamma-null, mouse, po, 7 mg/kg
[54] = in vivo; conditions: NOD-SCID IL-2Rgamma-null, mouse, po, 7 mg/kg; remark: listed apart in the source
[55] = in vivo; conditions: Swiss outbred, mouse, po, 0.4 mg/kg
[56] = in vivo; conditions: Swiss outbred, mouse, po, 2 mg/kg
[57] = in vivo; conditions: Swiss outbred, mouse, po, 10 mg/kg
[58] = in vivo; conditions: Swiss outbred, mouse, po, 50 mg/kg
[59] = in vivo; conditions: Sprague-Dawley, rat, po, 2.1 mg/kg
[60] = in vivo; conditions: Sprague-Dawley, rat, po, 18.8 mg/kg
[61] = in vivo; conditions: Sprague-Dawley, rat, po, 46.7 mg/kg
[62] = Plasma protein binding in Swiss outbred mouse by ultracentrifugation; conditions: read-out: PPB (converted)

Cc1cc(Nc2ccc(S(F)(F)(F)(F)F)cc2)n2nc(C(C)(F)F)nc2n1 [DSM-265]
bioavailability [1]: 66%
bioavailability [2]: 57%
bioavailability [3]: 61%
fraction unbound [4]: 0.027
ED50 [5]: 2.8 mg/kg
ED90 [5]: 8.1 mg/kg
AUC [6]: 3469 µM·min
Cmax [7]: 6.1 µM
Cmax [8]: 5.3 µM
EC50 [9]: 86 nM
PPB [10]: 97.4%
Intrinsic clearance [11]: < 5 µL/min/mg
EC50 [12]: 22 nM
EC50 [13]: 57 nM
EC50 [14]: 27 nM
EC50 [15]: 57 nM
EC50 [16]: 15 nM
EC50 [17]: 31 nM
EC50 [18]: > 50000 nM
EC50 [19]: > 50000 nM
half-life [20]: 4.1 h
half-life [21]: 3.5 h
half-life [22]: 2.5 h
half-life [23]: 3.2 h
Cmax [24]: 0.06 µM
Cmax [25]: 0.44 µM
Cmax [26]: 3.1 µM
Cmax [27]: 9.53 µM
AUC(0-inf) [28]: 0.45 µM·h
AUC(0-inf) [29]: 2.72 µM·h
AUC(0-inf) [30]: 22.6 µM·h
AUC(0-inf) [31]: 33.8 µM·h
Time [32]: 0 h
Time [33]: 0 h
Time [34]: 8 h
clearance [35]: 6 mL/min/kg
half-life [36]: 10.1 h
half-life [37]: 12.6 h
Vd [38]: 2.9 L/kg
Vd [39]: 5.9 L/kg
Cmax [40]: 0.75 µM
Cmax [41]: 3.9 µM
Cmax [42]: 6.4 µM
half-life [43]: 11.6 h
half-life [44]: 15.5 h
half-life [45]: 27.9 h
AUC(0-inf) [46]: 15.5 µM·h
AUC(0-inf) [47]: 122 µM·h
AUC(0-inf) [48]: 322 µM·h
EC50 [49]: 46 nM
EC50 [50]: 7.8 nM
EC50 [51]: > 20000 nM
solubility [52]: 30 µM (≈ 12.5 µg/mL)
Tmax [53]: 4 h
Tmax [54]: 6.7 h
Tmax [55]: 0.5 h
Tmax [56]: 1 h
Tmax [57]: 1.5 h
Tmax [58]: 2 h
Tmax [59]: 3.25 h
Tmax [60]: 7 h
Tmax [61]: 17 h
fraction unbound [62]: 0.004
